The target in the test is T1, HCV polymerase (Hepatitis C virus genotype 1b, UniProt Q9WMX2).
T1 construct: (His)6 (C)
Description: biochemical. To be noted: polymerase assay of Biological Example 1; read-out: NS5B polymerase IC50.
With `CCc1cc2c(C(=O)NC)c(-c3ccc(F)cc3)oc2nc1N(CCOc1ccccc1C#N)S(C)(=O)=O` [Example 21.95, 6-(N-(2-(2-cyanophenoxy)ethyl)methylsulfonamido)-5-ethyl-2-(4-fluorophenyl)-N-methylfuro[2,3-b]pyridine-3-carboxamide], the half-maximal inhibitory concentration (IC50) is 119 nM.
Regarding `CCc1cc2c(C(=O)NC)c(-c3ccc(F)cc3)oc2nc1N(CCCCOc1ccccc1C#N)S(C)(=O)=O` [Example 21.96, 6-(N-(4-(2-cyanophenoxy)butyl)methylsulfonamido)-5-ethyl-2-(4-fluorophenyl)-N-methylfuro[2,3-b]pyridine-3-carboxamide], the IC50 came to 72 nM.
As for `CCc1cc2c(C(=O)NC)c(-c3ccc(F)cc3)oc2nc1N(CCCS(=O)(=O)N1CCOCC1)S(C)(=O)=O` [Example 21.98, 5-ethyl-2-(4-fluorophenyl)-N-methyl-6-(N-(3-(morpholinosulfonyl)propyl)methylsulfonamido)furo[2,3-b]pyridine-3-carboxamide], the 50% inhibitory concentration (IC50) was 37 nM.
Turning to `CCc1cc2c(C(=O)NC)c(-c3ccc(F)cc3)oc2nc1N(CCCC#N)S(C)(=O)=O` [Example 21.991, 6-(N-(3-cyanopropyl)methylsulfonamido)-5-ethyl-2-(4-fluorophenyl)-N-methylfuro[2,3-b]pyridine-3-carboxamide], the half-maximal inhibitory concentration (IC50) worked out at 74 nM.
Take `CCc1cc2c(C(=O)NC)c(-c3ccc(F)cc3)oc2nc1N(CCc1ccc(OC)cc1)S(C)(=O)=O` [Example 21.993, 5-ethyl-2-(4-fluorophenyl)-6-(N-(4-methoxyphenethyl)methylsulfonamido)-N-methylfuro[2,3-b]pyridine-3-carboxamide]: the IC50 was found to be 228 nM.
As for `CCc1cc2c(C(=O)NC)c(-c3ccc(F)cc3)oc2nc1N(CC1CCOCC1)S(C)(=O)=O` [Example 21.994, 5-ethyl-2-(4-fluorophenyl)-N-methyl-6-(N-((tetrahydro-2H-pyran-4-yl)methyl)methylsulfonamido)furo[2,3-b]pyridine-3-carboxamide], the figure is 147 nM.
For the compound `CCc1cc2c(C(=O)NC)c(-c3ccc(F)cc3)oc2nc1N(CCC1CCN(C(=O)OC(C)(C)C)CC1)S(C)(=O)=O` [Example 21.995, tert-butyl 4-(2-(N-(5-ethyl-2-(4-fluorophenyl)-3-(methylcarbamoyl)furo[2,3-b]pyridin-6-yl)methylsulfonamido)ethyl)piperidine-1-carboxylate], the IC50 turned out to be 155 nM.
In the case of `CCc1cc2c(C(=O)NC)c(-c3ccc(F)cc3)oc2nc1N(CCc1ccncc1)S(C)(=O)=O` [Example 21.996, 5-ethyl-2-(4-fluorophenyl)-N-methyl-6-(N-(2-(pyridin-4-yl)ethyl)methylsulfonamido)furo[2,3-b]pyridine-3-carboxamide] it was 94 nM.
As to `CCc1cc2c(C(=O)NC)c(-c3ccc(F)cc3)oc2nc1N(CC1CCN(C(=O)OC(C)(C)C)CC1)S(C)(=O)=O` [Example 21.997, tert-butyl 4-((N-(5-ethyl-2-(4-fluorophenyl)-3-(methylcarbamoyl)furo[2,3-b]pyridin-6-yl)methylsulfonamido)methyl)piperidine-1-carboxylate], the IC50 was 148 nM.
Regarding `CCc1cc2c(C(=O)NC)c(-c3ccc(F)cc3)oc2nc1N(CCN1CCN(C(=O)OC(C)(C)C)CC1)S(C)(=O)=O` [Example 21.998, tert-butyl 4-(2-(N-(5-ethyl-2-(4-fluorophenyl)-3-(methylcarbamoyl)furo[2,3-b]pyridin-6-yl)methylsulfonamido)ethyl)piperazine-1-carboxylate], the IC50 was 428 nM.
On to `CCc1cc2c(C(=O)NC)c(-c3ccc(F)cc3)oc2nc1N(CCCN1CCN(C(=O)OC(C)(C)C)CC1)S(C)(=O)=O` [Example 21.999, tert-butyl 4-(3-(N-(5-ethyl-2-(4-fluorophenyl)-3-(methylcarbamoyl)furo[2,3-b]pyridin-6-yl)methylsulfonamido)propyl)piperazine-1-carboxylate], for which the IC50 worked out at 112 nM.
For the compound `CCc1cc2c(C(=O)NC)c(-c3ccc(F)cc3)oc2nc1N(CCc1scnc1C)S(C)(=O)=O` [Example 22, 5-ethyl-2-(4-fluorophenyl)-N-methyl-6-(N-(2-(4-methylthiazol-5-yl)ethyl)methylsulfonamido)furo[2,3-b]pyridine-3-carboxamide], the half-maximal inhibitory concentration (IC50) is 169 nM.
With `CCc1cc2c(C(=O)NC)c(-c3ccc(F)cc3)oc2nc1N(CCCCOc1ccccc1OC)S(C)(=O)=O` [Example 22.1, 5-ethyl-2-(4-fluorophenyl)-6-(N-(4-(2-methoxyphenoxy)butyl)methylsulfonamido)-N-methylfuro[2,3-b]pyridine-3-carboxamide], the IC50 came out at 34 nM.
For `CCc1cc2c(C(=O)NC)c(-c3ccc(F)cc3)oc2nc1N(CCc1ccc(OC)c(OC)c1)S(C)(=O)=O` [Example 22.2, 6-(N-(3,4-dimethoxyphenethyl)methylsulfonamido)-5-ethyl-2-(4-fluorophenyl)-N-methylfuro[2,3-b]pyridine-3-carboxamide], the IC50 was 281 nM.
Turning to `CCc1cc2c(C(=O)NC)c(-c3ccc(F)cc3)oc2nc1N(CCN1CCSCC1)S(C)(=O)=O` [Example 22.3, 5-ethyl-2-(4-fluorophenyl)-N-methyl-6-(N-(2-thiomorpholinoethyl)methylsulfonamido)furo[2,3-b]pyridine-3-carboxamide], the IC50 stood at 89 nM.
Take `CCc1cc2c(C(=O)NC)c(-c3ccc(F)cc3)oc2nc1N(CCOCCN1C(=O)NC(C)(C)C1=O)S(C)(=O)=O` [Example 22.4, 6-(N-(2-(2-(4,4-dimethyl-2,5-dioxoimidazolidin-1-yl)ethoxy)ethyl)methylsulfonamido)-5-ethyl-2-(4-fluorophenyl)-N-methylfuro[2,3-b]pyridine-3-carboxamide]: the IC50 came out at 33 nM.
In the case of `CCc1cc2c(C(=O)NC)c(-c3ccc(F)cc3)oc2nc1N(CCOc1ccccc1C(=O)OC)S(C)(=O)=O` [Example 22.5, methyl 2-(2-(N-(5-ethyl-2-(4-fluorophenyl)-3-(methylcarbamoyl)furo[2,3-b]pyridin-6-yl)methylsulfonamido)ethoxy)benzoate] it was 83 nM.
As to `CCc1cc2c(C(=O)NC)c(-c3ccc(F)cc3)oc2nc1N(CCOc1cccc(C(=O)OC)c1)S(C)(=O)=O` [Example 22.6, methyl 3-(2-(N-(5-ethyl-2-(4-fluorophenyl)-3-(methylcarbamoyl)furo[2,3-b]pyridin-6-yl)methylsulfonamido)ethoxy)benzoate], the concentration for half-maximal inhibition (IC50) is 251 nM.
As for `CCc1cc2c(C(=O)NC)c(-c3ccc(F)cc3)oc2nc1N(CCOc1ccc(C(=O)OC)cc1)S(C)(=O)=O` [Example 22.7, methyl 4-(2-(N-(5-ethyl-2-(4-fluorophenyl)-3-(methylcarbamoyl)furo[2,3-b]pyridin-6-yl)methylsulfonamido)ethoxy)benzoate], the figure is 53 nM; as for `CCc1cc2c(C(=O)NC)c(-c3ccc(F)cc3)oc2nc1N(CCOc1ccc2cccnc2c1)S(C)(=O)=O` [Example 22.8, 5-ethyl-2-(4-fluorophenyl)-N-methyl-6-(N-(2-(quinolin-7-yloxy)ethyl)methylsulfonamido)furo[2,3-b]pyridine-3-carboxamide], 45 nM; as for `CCc1cc2c(C(=O)NC)c(-c3ccc(F)cc3)oc2nc1N(CC[C@H]1COc2c(OC)cccc21)S(C)(=O)=O` [Example 22.9, (R)-5-ethyl-2-(4-fluorophenyl)-6-(N-(2-(7-methoxy-2,3-dihydrobenzofuran-3-yl)ethyl)methylsulfonamido)-N-methylfuro[2,3-b]pyridine-3-carboxamide], 23 nM.
Take `CCc1cc2c(C(=O)NC)c(-c3ccc(F)cc3)oc2nc1N(CCCS(=O)(=O)N1CCCC1)S(C)(=O)=O` [Example 22.91, 5-ethyl-2-(4-fluorophenyl)-N-methyl-6-(N-(3-(pyrrolidin-1-ylsulfonyl)propyl)methylsulfonamido)furo[2,3-b]pyridine-3-carboxamide]: the half-maximal inhibitory concentration (IC50) was 34 nM.
Turning to `CCc1cc2c(C(=O)NC)c(-c3ccc(F)cc3)oc2nc1N(CCCCC(C)O)S(C)(=O)=O` (centres unmarked) [Example 22.93, 5-ethyl-2-(4-fluorophenyl)-6-(N-(5-hydroxyhexyl)methylsulfonamido)-N-methylfuro[2,3-b]pyridine-3-carboxamide], the half-maximal inhibitory concentration (IC50) worked out at 47 nM.
In the case of `CCc1cc2c(C(=O)NC)c(-c3ccc(F)cc3)oc2nc1N(CCCC(C)(C)O)S(C)(=O)=O` [Example 22.94, 5-ethyl-2-(4-fluorophenyl)-6-(N-(4-hydroxy-4-methylpentyl)methylsulfonamido)-N-methylfuro[2,3-b]pyridine-3-carboxamide] it was 31 nM; in that of `CCc1cc2c(C(=O)NC)c(-c3ccc(F)cc3)oc2nc1N(CCCC(=O)N(C)C)S(C)(=O)=O` [Example 22.96, 6-(N-(4-(dimethylamino)-4-oxobutyl)methylsulfonamido)-5-ethyl-2-(4-fluorophenyl)-N-methylfuro[2,3-b]pyridine-3-carboxamide], 131 nM.
As for `CCc1cc2c(C(=O)NC)c(-c3ccc(F)cc3)oc2nc1N(CCCCC(C)(C)O)S(C)(=O)=O` [Example 22.97, 5-ethyl-2-(4-fluorophenyl)-6-(N-(5-hydroxy-5-methylhexyl)methylsulfonamido)-N-methylfuro[2,3-b]pyridine-3-carboxamide], the half-maximal inhibitory concentration (IC50) was 46 nM.
Turning to `CCc1cc2c(C(=O)NC)c(-c3ccc(F)cc3)oc2nc1N(CCCCC(=O)N(C)C)S(C)(=O)=O` [Example 22.992, 6-(N-(5-(dimethylamino)-5-oxopentyl)methylsulfonamido)-5-ethyl-2-(4-fluorophenyl)-N-methylfuro[2,3-b]pyridine-3-carboxamide], the IC50 worked out at 41 nM.
Take `CCc1cc2c(C(=O)NC)c(-c3ccc(F)cc3)oc2nc1N(C(C)C)S(C)(=O)=O` [Example 22.993, 5-ethyl-2-(4-fluorophenyl)-6-(N-isopropylmethylsulfonamido)-N-methylfuro[2,3-b]pyridine-3-carboxamide]: the concentration for half-maximal inhibition (IC50) amounted to 1060 nM.
For `CCc1cc2c(C(=O)NC)c(-c3ccc(F)cc3)oc2nc1N(CCN1Cc2ccccc2S1(=O)=O)S(C)(=O)=O` [Example 22.994, 6-{[2-(1,1-Dioxo-1,3-dihydrobenzo[d]isothiazol-2-yl)-ethyl]-methanesulfonyl-amino}-5-ethyl-2-(4-fluoro-phenyl)-furo[2,3-b]pyridine-3-carboxylic acid methylamide], the IC50 was found to be 1060 nM.

As usually defined, the IC50 is the point on the concentration scale where inhibition reaches its midpoint.

These data come from US20120015907A1, “Furopyridine compounds and uses thereof” (NOVARTIS AG, priority 2010, published 2012).
